From patent US20250059220A1, “SUBSTITUTED BENZOTHIOPHENE DERIVATIVES AND METHODS OF USE THEREOF” (Merck Sharp & Dohme LLC, priority 2021, published 2025)

Legend:
human PTPN2 (1-387) = human PTPN2 (1-387) (Homo sapiens (Human), UniProt P17706); assay: Human PTPN2 Biochemical Assay; conditions: DiFMUP substrate
Summary of the method: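 Human PTPN2 (1-387) preincubated 30 min at RT with compound (10-point 3-fold series) in Tris pH 7.4 buffer with 0.5 mM DTT, then DiFMUP substrate added for 1 h at RT. Fluorescence at ex 360/em 460 nm, normalised to no-enzyme and enzyme controls; EC50 from 4-parameter fit.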

human PTPN1 (1-435) = human PTPN1 (1-435) (Homo sapiens (Human), UniProt P18031); assay: Human PTPN1 Biochemical Assay; conditions: DiFMUP substrate, read-out: PTP1B IC50
Summary of the method: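 Read-out is DiFMUP hydrolysis fluorescence (360 nm excitation, 460 nm emission) after 1 h at room temperature, following 30 min enzyme–compound preincubation.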

human PTPN1 (1-435), sequence (P18031 whole entry): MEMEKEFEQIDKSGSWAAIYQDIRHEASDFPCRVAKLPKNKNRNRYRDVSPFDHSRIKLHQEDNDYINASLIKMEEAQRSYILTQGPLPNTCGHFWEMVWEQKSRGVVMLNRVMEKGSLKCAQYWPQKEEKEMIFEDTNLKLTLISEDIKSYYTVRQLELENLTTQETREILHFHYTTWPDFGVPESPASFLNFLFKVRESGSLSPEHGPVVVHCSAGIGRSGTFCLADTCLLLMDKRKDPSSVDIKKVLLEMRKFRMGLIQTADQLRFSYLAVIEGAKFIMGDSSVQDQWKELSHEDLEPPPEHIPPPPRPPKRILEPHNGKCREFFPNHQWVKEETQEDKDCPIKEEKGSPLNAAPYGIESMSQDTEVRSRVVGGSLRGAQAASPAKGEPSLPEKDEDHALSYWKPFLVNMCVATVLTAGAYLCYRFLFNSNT
human PTPN2 (1-387), sequence (P17706 other isoform, or with tags, fused parts or gaps): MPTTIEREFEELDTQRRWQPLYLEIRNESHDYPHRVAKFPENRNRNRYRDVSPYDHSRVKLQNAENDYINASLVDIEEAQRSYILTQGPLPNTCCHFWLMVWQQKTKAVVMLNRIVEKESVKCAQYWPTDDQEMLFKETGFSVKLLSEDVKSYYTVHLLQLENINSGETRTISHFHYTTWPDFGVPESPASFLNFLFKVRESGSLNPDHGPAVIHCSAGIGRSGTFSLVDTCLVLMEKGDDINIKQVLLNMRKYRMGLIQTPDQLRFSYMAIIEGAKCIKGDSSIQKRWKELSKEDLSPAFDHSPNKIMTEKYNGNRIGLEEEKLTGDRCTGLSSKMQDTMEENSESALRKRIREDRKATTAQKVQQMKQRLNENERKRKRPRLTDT

Row | SMILES | IC50 (human PTPN2 (1-387)) | IC50 (human PTPN1 (1-435))
1 | NC(=O)c1cc(OCCC2CCCS2(=O)=O)c2sc(C(F)(F)P(=O)(O)O)c(Br)c2c1 (single isomer, unassigned) [Compound 372] | 19.7 nM | 18.2 nM
2 | O=C(NCc1ncc(F)cn1)c1ccc2sc(C(F)(F)P(=O)(O)O)c(Br)c2c1 [Compound 184] | 7340 nM | 4970 nM
3 | O=P(O)(O)C(F)(F)c1sc2c(OCC3CC3(F)F)cc(-c3cnn[nH]3)cc2c1Br (stereo not drawn) [Compound 367] | 12.2 nM | 14.1 nM
4 | NC(=O)c1cc(CCCCS(N)(=O)=O)c2sc(C(F)(F)P(=O)(O)O)c(Br)c2c1 [Compound 311] | 120 nM | 140 nM
5 | O=C(NCCc1c[nH]c2ccccc12)c1ccc2sc(C(F)(F)P(=O)(O)O)c(Br)c2c1 [Compound 153] | 1950 nM | 3160 nM
6 | O=C(NCCc1nc(-c2ccccc2)cs1)c1ccc2sc(C(F)(F)P(=O)(O)O)c(Br)c2c1 [Compound 82] | 1880 nM | 1390 nM
7 | COc1ccc2[nH]cc(CCNC(=O)c3ccc4sc(C(F)(F)P(=O)(O)O)c(Br)c4c3)c2c1 [Compound 154] | 2770 nM | 1520 nM
8 | NC(=O)c1cc(OCCCC2(O)CC2)c2sc(C(F)(F)P(=O)(O)O)c(Br)c2c1 [Compound 331] | 23.8 nM | 28.8 nM
9 | N#CC1(c2ccc(COc3cc(C(N)=O)cc4c(Br)c(C(F)(F)P(=O)(O)O)sc34)cc2)CC1 [Compound 288] | 6.86 nM | 7.3 nM
10 | NC(=O)c1cc(OCc2ccc(C3CC3)cc2Cl)c2sc(C(F)(F)P(=O)(O)O)c(Br)c2c1 [Compound 399] | 69 nM | 213 nM
11 | NC(=O)c1cc(OCCC2CCNS2(=O)=O)c2sc(C(F)(F)P(=O)(O)O)c(Br)c2c1 (single isomer, unassigned) [Compound 461, (R or S)-((3-bromo-5-carbamoyl-7-(2-(1,1-dioxidoisothiazolidin-5-yl)ethoxy)benzo[b]thiophen-2-yl)difluoromethyl)phosphonic acid] | 22.5 nM | 21.1 nM
12 | O=C(NCc1c[nH]nn1)c1ccc2sc(C(F)(F)P(=O)(O)O)c(Br)c2c1 [Compound 140] | 1810 nM | 1480 nM
13 | O=C1NC[C@H](CNC(=O)c2ccc3sc(C(F)(F)P(=O)(O)O)c(Br)c3c2)N1 [Compound 132] | 5230 nM | 4700 nM
14 | NC(=O)c1cc(OCc2ccc(-c3cncnc3)cc2)c2sc(C(F)(F)P(=O)(O)O)c(Br)c2c1 [Compound 398] | 23.2 nM | 78.6 nM
15 | O=C(NC1CC1(F)F)c1cc(OCCCC(F)(F)F)c2sc(C(F)(F)P(=O)(O)O)c(Br)c2c1 (stereo not drawn) [Compound 207] | 9.79 nM | 11.6 nM
16 | NC(=O)c1cc(OCc2ccc(-c3cccnc3)cc2)c2sc(C(F)(F)P(=O)(O)O)c(Br)c2c1 [Compound 401] | 4.4 nM | 36.2 nM
17 | O=C(NCCn1ccnn1)c1ccc2sc(C(F)(F)P(=O)(O)O)c(Br)c2c1 [Compound 147] | 5660 nM | 3190 nM
18 | O=C1NC[C@@H](CNC(=O)c2ccc3sc(C(F)(F)P(=O)(O)O)c(Br)c3c2)N1 [Compound 131] | 4160 nM | 4130 nM
19 | O=C(NC(c1cccnc1)C(F)(F)F)c1ccc2sc(C(F)(F)P(=O)(O)O)c(Br)c2c1 (stereo not drawn) [Compound 158] | 456 nM | 1450 nM
20 | O=C(NC1CCCN(Cc2ccccc2F)C1)c1ccc2sc(C(F)(F)P(=O)(O)O)c(Br)c2c1 (stereo not drawn) [Compound 68] | 4240 nM | 3770 nM
21 | O=C(N[C@@H]1CCCC[C@H]1OCc1ccccc1)c1ccc2sc(C(F)(F)P(=O)(O)O)c(Br)c2c1 [Compound 75] | 2700 nM | 1850 nM
22 | O=C(NCCn1ccc2ccccc21)c1ccc2sc(C(F)(F)P(=O)(O)O)c(Br)c2c1 [Compound 156] | 902 nM | 1790 nM
23 | CC(Cn1ccnc1)NC(=O)c1ccc2sc(C(F)(F)P(=O)(O)O)c(Br)c2c1 (stereo not drawn) [Compound 148] | 5940 nM | 5270 nM
24 | NC(=O)c1ccc2c(Br)c(C(F)(F)P(=O)(O)O)sc2c1 [Compound 300, ((3-bromo-6-carbamoylbenzo[b]thiophen-2-yl)difluoromethyl)phosphonic acid] | 16900 nM | 7330 nM
25 | CC(C)OCCNC(=O)c1ccc2sc(C(F)(F)P(=O)(O)O)c(Br)c2c1 [Compound 60] | 2530 nM | 5720 nM
26 | NC(=O)c1cc(OCc2cccc(C(F)(F)F)c2)c2sc(C(F)(F)P(=O)(O)O)c(Br)c2c1 [Compound 383] | 79.6 nM | 92.3 nM
27 | NC(=O)c1cc(NCCCS(N)(=O)=O)c2sc(C(F)(F)P(=O)(O)O)c(Br)c2c1 [Compound 312] | 71.2 nM | 79.1 nM

Row | SMILES | IC50 (human PTPN2 (1-387)) | IC50 (human PTPN1 (1-435))
28 | O=P(O)(O)C(F)(F)c1sc2c(OCCCC(F)(F)F)cc(I)cc2c1Br [Compound 406, ((3-bromo-5-iodo-7-(4,4,4-trifluorobutoxy)benzo[b]thiophen-2-yl)difluoromethyl)phosphonic acid] | 518 nM | 487 nM
29 | CC1CCc2c(sc(NC(=O)c3ccc4sc(C(F)(F)P(=O)(O)O)c(Br)c4c3)c2C#N)C1 (stereo not drawn) [Compound 63] | 542 nM | 444 nM
30 | COc1cc(COc2cc(C(N)=O)cc3c(Br)c(C(F)(F)P(=O)(O)O)sc23)ccc1C#N [Compound 363] | 112 nM | 152 nM
31 | O=C(NCc1ccccc1N1CCOCC1)c1ccc2sc(C(F)(F)P(=O)(O)O)c(Br)c2c1 [Compound 90] | 5800 nM | 4200 nM
32 | CS(=O)(=O)CCCOc1cc(C(N)=O)cc2c(C(F)(F)F)c(C(F)(F)P(=O)(O)O)sc12 [Compound 445, ((5-carbamoyl-7-(3-(methylsulfonyl)propoxy)-3-(trifluoromethyl)benzo[b]thiophen-2-yl)difluoromethyl)phosphonic acid] | 15.5 nM | 12.7 nM
33 | NC(=O)c1cc(OCC2CC(C3CC3)C2)c2sc(C(F)(F)P(=O)(O)O)c(Br)c2c1 (stereo not drawn) [Compound 295] | 38.9 nM | 38 nM
34 | NC(=O)c1cc(OCc2ccc(C(F)(F)F)cc2F)c2sc(C(F)(F)P(=O)(O)O)c(Br)c2c1 [Compound 338] | 51.2 nM | 74.4 nM
35 | NC(=O)c1cc(OCCC2CC2(F)F)c2sc(C(F)(F)P(=O)(O)O)c(Br)c2c1 (stereo not drawn) [Compound 286] | 76.9 nM | 40 nM
36 | NC(=O)c1cc(OCCC2CCC2)c2sc(C(F)(F)P(=O)(O)O)c(Br)c2c1 [Compound 317] | 68.5 nM | 68.4 nM
37 | NC(=O)c1cc(OCC2C3CC4C(C3)C24)c2sc(C(F)(F)P(=O)(O)O)c(Br)c2c1 (stereo not drawn) [Compound 287] | 45.3 nM | 16 nM
38 | O=P(O)(O)C(F)(F)c1sc2c(NCCCC(F)(F)F)cccc2c1Br [Compound 226, ((3-bromo-7-((4,4,4-trifluorobutyl)amino)benzo[b]thiophen-2-yl)difluoromethyl)phosphonic acid] | 2690 nM | 2030 nM
39 | CN(C)CCNC(=O)c1cc(OCCCC(F)(F)F)c2sc(C(F)(F)P(=O)(O)O)c(Br)c2c1 [Compound 211] | 511 nM | 696 nM
40 | CC(=O)NCc1cc(OCCCC(F)(F)F)c2sc(C(F)(F)P(=O)(O)O)c(Br)c2c1 [Compound 449, ((5-(acetamidomethyl)-3-bromo-7-(4,4,4-trifluorobutoxy)benzo[b]thiophen-2-yl)difluoromethyl)phosphonic acid] | 1190 nM | 812 nM
41 | O=C(NCc1nnc2n1CCC2)c1ccc2sc(C(F)(F)P(=O)(O)O)c(Br)c2c1 [Compound 51] | 1350 nM | 1110 nM
42 | O=C(NCc1c[nH]nn1)c1cc(F)c2sc(C(F)(F)P(=O)(O)O)c(Br)c2c1 [Compound 165] | 390 nM | 675 nM
43 | NC(=O)c1cc(OCc2ccc(C3(C(F)(F)F)CC3)cc2)c2sc(C(F)(F)P(=O)(O)O)c(Br)c2c1 [Compound 388] | 59.3 nM | 132 nM
44 | O=C(Nc1ccccc1)c1ccc2sc(C(F)(F)P(=O)(O)O)c(Cl)c2c1 [Compound 215, ((3-chloro-5-(phenylcarbamoyl)benzo[b]thiophen-2-yl)difluoromethyl)phosphonic acid] | 8430 nM | 7550 nM
45 | Cc1c(NC(=O)c2ccc3sc(C(F)(F)P(=O)(O)O)c(Br)c3c2)cccc1C(=O)N1CCCC1 [Compound 106] | 8970 nM | 6920 nM
46 | CN1CCCC(NC(=O)c2ccc3sc(C(F)(F)P(=O)(O)O)c(Br)c3c2)C1 (stereo not drawn) [Compound 58] | 7900 nM | 9050 nM
47 | O=C(NCc1cnccn1)c1ccc2sc(C(F)(F)P(=O)(O)O)c(Br)c2c1 [Compound 123] | 4290 nM | 3560 nM
48 | NC(=O)c1cc(OCc2ccc(-n3ccnc3)cc2)c2sc(C(F)(F)P(=O)(O)O)c(Br)c2c1 [Compound 355] | 16.3 nM | 118 nM
49 | NC(=O)c1cc(OCc2ccc(-c3ccncc3)cc2)c2sc(C(F)(F)P(=O)(O)O)c(Br)c2c1 [Compound 402] | 10.1 nM | 59.5 nM
50 | O=C(Nc1ccccc1OC1CCOCC1)c1ccc2sc(C(F)(F)P(=O)(O)O)c(Br)c2c1 [Compound 108] | 3620 nM | 4080 nM
51 | O=C(N[C@H]1CCCNC1=O)c1ccc2sc(C(F)(F)P(=O)(O)O)c(Br)c2c1 [Compound 97] | 8230 nM | 7080 nM
52 | O=C(NC1CCCOC1)c1ccc2sc(C(F)(F)P(=O)(O)O)c(Br)c2c1 (stereo not drawn) [Compound 127] | 6700 nM | 5140 nM
53 | CCC(NC(=O)c1ccc2sc(C(F)(F)P(=O)(O)O)c(Br)c2c1)c1ncnn1C (stereo not drawn) [Compound 191] | 2820 nM | 3600 nM
54 | NC(=O)c1cc(OCC2CC2(F)F)c2sc(C(F)(F)P(=O)(O)O)c(Br)c2c1 (stereo not drawn) [Compound 250] | 54.1 nM | 69.7 nM
